Measurements: patent publication US6355799B1, “Substituted benzene compounds, process for their preparation, and herbicidal and defoliant compositions containing them” (ISK Americas Incorporated, priority 1997, dated 2002)

Columns and labels:
Assay type in all cases: in vivo
[1] = test system: redroot pigweed (Amaranthus retroflexus, AMARE); experiment: Pre-emerge test, greenhouse herbicide activity screening
Procedure, shortened: (§1)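 Rating: 0–100 visual injury, 14 DAA. Application: acetone, 187 l/ha, 15–1000 g ai/ha, flat-fan track sprayer with nozzle 40–45 cm above soil or canopy. Post-emerge runs used 0.25% v/v surfactant on 2–3 leaf plants.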

[2] = test system: barnyardgrass (Echinochloa crus-galli, ECHCG); experiment: as above
Procedure, shortened: (§2)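 Applied at 15–1000 g ai/ha from acetone in 187 l/ha spray volume. Post-emergence applications included 0.25% v/v non-ionic surfactant and reached plants sown 8–21 days before. Pre-emergence applications were incorporated by surface watering. Efficacy or crop damage was rated on a 0–100 scale after 14 days.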

[3] = test system: green foxtail (Setaria viridis, SETVI); experiment: as above
Procedure, shortened: as §2

[4] = test system: ivyleaf morningglory (Ipomoea hederacea, IPOHE); experiment: as above
Procedure, shortened: as §2

[5] = test system: johnsongrass (Sorghum halepense, SORHA); experiment: as above
Procedure, shortened: as §2

[6] = test system: lambsquarters (Chenopodium album, CHEAL); experiment: as above
Procedure, shortened: as §2

[7] = test system: large crabgrass (Digitaria sanguinalis, DIGSA); experiment: as above
Procedure, shortened: as §2

[8] = test system: sicklepod (Cassia obtusifolia, CASOB); experiment: as above
Procedure, shortened: as §2

[9] = test system: velvetleaf (Abutilon theophrasti, ABUTH); experiment: as above
Procedure, shortened: as §2

[10] = test system: field corn (Zea mays L., var. Dekalb 535, CORN); experiment: Pre-emerge test, crop safety
Procedure, shortened: as §1

[11] = test system: upland rice (Oryza sp., var. Tebonnet, RICE); experiment: Pre-emerge test, crop safety
Procedure, shortened: as §1

[12] = test system: barnyardgrass (Echinochloa crus-galli, ECHCG); experiment: Post-emerge test, greenhouse herbicide activity screening; details: post-emerge; for phytotoxicity rating ECHCG: 14 days after application, rating scale 0-100; for Post-emerge Herbicidal Activity ECHCG: phytotoxicity rating 0-100 at 14 days after application
Procedure, shortened: (§3)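 Herbicidal damage is scored 0 (none) to 100 (complete plant death) two weeks after a simulated field spray. Rates span 15–1000 g ai/ha, delivered in acetone at 187 l/ha. For post-emergence treatments, plants have 2–3 leaves and the spray carries 0.25% v/v non-ionic surfactant.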

[13] = test system: green foxtail (Setaria viridis, SETVI); experiment: as above; details: post-emerge; for phytotoxicity rating SETVI: 14 days after application, rating scale 0-100; for Post-emerge Herbicidal Activity SETVI: phytotoxicity rating 0-100 at 14 days after application
Procedure, shortened: as §3

[14] = test system: ivyleaf morningglory (Ipomoea hederacea, IPOHE); experiment: as above; details: post-emerge; for phytotoxicity rating IPOHE: 14 days after application, rating scale 0-100; for Post-emerge Herbicidal Activity IPOHE: phytotoxicity rating 0-100 at 14 days after application
Procedure, shortened: as §3

[15] = test system: johnsongrass (Sorghum halepense, SORHA); experiment: as above; details: post-emerge; for phytotoxicity rating SORHA: 14 days after application, rating scale 0-100; for Post-emerge Herbicidal Activity SORHA: phytotoxicity rating 0-100 at 14 days after application
Procedure, shortened: as §3

[16] = test system: lambsquarters (Chenopodium album, CHEAL); experiment: as above; details: post-emerge; for phytotoxicity rating CHEAL: 14 days after application, rating scale 0-100; for Post-emerge Herbicidal Activity CHEAL: phytotoxicity rating 0-100 at 14 days after application
Procedure, shortened: as §3

[17] = test system: large crabgrass (Digitaria sanguinalis, DIGSA); experiment: as above; details: post-emerge; for phytotoxicity rating DIGSA: 14 days after application, rating scale 0-100; for Post-emerge Herbicidal Activity DIGSA: phytotoxicity rating 0-100 at 14 days after application
Procedure, shortened: as §3

[18] = test system: redroot pigweed (Amaranthus retroflexus, AMARE); experiment: as above; details: post-emerge; for phytotoxicity rating AMARE: 14 days after application; for Post-emerge Herbicidal Activity AMARE: phytotoxicity rating 0-100 at 14 days after application
Procedure, shortened: as §3

[19] = test system: sicklepod (Cassia obtusifolia, CASOB); experiment: as above; details: post-emerge; for phytotoxicity rating CASOB: 14 days after application, rating scale 0-100; for Post-emerge Herbicidal Activity CASOB: phytotoxicity rating 0-100 at 14 days after application
Procedure, shortened: as §3

[20] = test system: velvetleaf (Abutilon theophrasti, ABUTH); experiment: as above; details: post-emerge; for phytotoxicity rating ABUTH: 14 days after application, rating scale 0-100; for Post-emerge Herbicidal Activity ABUTH: phytotoxicity rating 0-100 at 14 days after application
Procedure, shortened: as §3

[21] = test system: field corn (Zea mays L., var. Dekalb 535, CORN); experiment: Post-emerge test, crop safety; details: post-emerge; for phytotoxicity rating CORN (crop damage): 14 days after application, rating scale 0-100; for Post-emerge Herbicidal Activity CORN: crop damage rating 0-100 at 14 days after application
Procedure, shortened: as §2

[22] = test system: upland rice (Oryza sp., var. Tebonnet, RICE); experiment: Post-emerge test, crop safety; details: post-emerge; for phytotoxicity rating RICE (crop damage): 14 days after application, rating scale 0-100; for Post-emerge Herbicidal Activity RICE: crop damage rating 0-100 at 14 days after application
Procedure, shortened: as §2

[23] = 63 g ai/ha, phytotoxicity rating 0-100, 14 days after application
[24] = 250 g ai/ha, phytotoxicity rating 0-100, 14 days after application
[25] = 63 g ai/ha, crop damage rating 0-100, 14 days after application
[26] = 250 g ai/ha, crop damage rating 0-100, 14 days after application
[27] = pre-emerge, rate 63 g ai/ha, phytotoxicity rating 0-100 at 14 days after application
[28] = pre-emerge, rate 250 g ai/ha, phytotoxicity rating 0-100 at 14 days after application
[29] = crop damage, pre-emerge, rate 63 g ai/ha, phytotoxicity rating 0-100 at 14 days after application
[30] = crop damage, pre-emerge, rate 250 g ai/ha, phytotoxicity rating 0-100 at 14 days after application

COc1c(Cl)cc(F)c(-n2c(=O)cc(C(F)(F)F)n(C)c2=O)c1NC(=O)Oc1ccccc1C(C)(C)C [4-27]
Pre-emerge Herbicidal Activity AMARE [1, 23]: 70
Pre-emerge Herbicidal Activity AMARE [1, 24]: 100
Pre-emerge Herbicidal Activity ECHCG [2, 23]: 0
Pre-emerge Herbicidal Activity ECHCG [2, 24]: 0
Pre-emerge Herbicidal Activity SETVI [3, 23]: 30
Pre-emerge Herbicidal Activity SETVI [3, 24]: 50
Pre-emerge Herbicidal Activity IPOHE [4, 23]: 20
Pre-emerge Herbicidal Activity IPOHE [4, 24]: 50
Pre-emerge Herbicidal Activity SORHA [5, 23]: 0
Pre-emerge Herbicidal Activity SORHA [5, 24]: 0
Pre-emerge Herbicidal Activity CHEAL [6, 23]: 80
Pre-emerge Herbicidal Activity CHEAL [6, 24]: 100
Pre-emerge Herbicidal Activity DIGSA [7, 23]: 0
Pre-emerge Herbicidal Activity DIGSA [7, 24]: 0
Pre-emerge Herbicidal Activity CASOB [8, 23]: 0
Pre-emerge Herbicidal Activity CASOB [8, 24]: 30
Pre-emerge Herbicidal Activity ABUTH [9, 23]: 80
Pre-emerge Herbicidal Activity ABUTH [9, 24]: 100
Pre-emerge Herbicidal Activity CORN [10, 25]: 0
Pre-emerge Herbicidal Activity CORN [10, 26]: 0
Pre-emerge Herbicidal Activity RICE [11, 25]: 10
Pre-emerge Herbicidal Activity RICE [11, 26]: 50
phytotoxicity rating ECHCG ([12]; 63 g ai/ha): 0
phytotoxicity rating ECHCG ([12]; 250 g ai/ha): 0
phytotoxicity rating SETVI ([13]; 63 g ai/ha): 0
phytotoxicity rating SETVI ([13]; 250 g ai/ha): 10
phytotoxicity rating IPOHE ([14]; 63 g ai/ha): 70
phytotoxicity rating IPOHE ([14]; 250 g ai/ha): 80
phytotoxicity rating SORHA ([15]; 63 g ai/ha): 0
phytotoxicity rating SORHA ([15]; 250 g ai/ha): 0
phytotoxicity rating CHEAL ([16]; 63 g ai/ha): 60
phytotoxicity rating CHEAL ([16]; 250 g ai/ha): 100
phytotoxicity rating DIGSA ([17]; 63 g ai/ha): 0
phytotoxicity rating DIGSA ([17]; 250 g ai/ha): 0
phytotoxicity rating AMARE ([18]; 63 g ai/ha, rating scale 0-100 (0 no damage, 100 complete death)): 60
phytotoxicity rating AMARE ([18]; 250 g ai/ha, rating scale 0-100): 80
phytotoxicity rating CASOB ([19]; 63 g ai/ha): 20
phytotoxicity rating CASOB ([19]; 250 g ai/ha): 40
phytotoxicity rating ABUTH ([20]; 63 g ai/ha): 70
phytotoxicity rating ABUTH ([20]; 250 g ai/ha): 100
phytotoxicity rating CORN (crop damage) ([21]; 63 g ai/ha): 5
phytotoxicity rating CORN (crop damage) ([21]; 250 g ai/ha): 10
phytotoxicity rating RICE (crop damage) ([22]; 63 g ai/ha): 0
phytotoxicity rating RICE (crop damage) ([22]; 250 g ai/ha): 10

COc1ccc(COC(=O)Nc2c(C)c(Cl)cc(F)c2-n2c(=O)cc(C(F)(F)F)n(C)c2=O)cc1OC [4-63]
Pre-emerge Herbicidal Activity AMARE [1, 27]: 100
Pre-emerge Herbicidal Activity AMARE [1, 28]: 100
Pre-emerge Herbicidal Activity ECHCG [2, 27]: 30
Pre-emerge Herbicidal Activity ECHCG [2, 28]: 70
Pre-emerge Herbicidal Activity SETVI [3, 27]: 70
Pre-emerge Herbicidal Activity SETVI [3, 28]: 100
Pre-emerge Herbicidal Activity IPOHE [4, 27]: 40
Pre-emerge Herbicidal Activity IPOHE [4, 28]: 100
Pre-emerge Herbicidal Activity SORHA [5, 27]: 30
Pre-emerge Herbicidal Activity SORHA [5, 28]: 50
Pre-emerge Herbicidal Activity CHEAL [6, 27]: 100
Pre-emerge Herbicidal Activity CHEAL [6, 28]: 100
Pre-emerge Herbicidal Activity DIGSA [7, 27]: 70
Pre-emerge Herbicidal Activity DIGSA [7, 28]: 95
Pre-emerge Herbicidal Activity CASOB [8, 27]: 40
Pre-emerge Herbicidal Activity CASOB [8, 28]: 100
Pre-emerge Herbicidal Activity ABUTH [9, 27]: 100
Pre-emerge Herbicidal Activity ABUTH [9, 28]: 100
Pre-emerge Herbicidal Activity CORN [10, 29]: 0
Pre-emerge Herbicidal Activity CORN [10, 30]: 35
Pre-emerge Herbicidal Activity RICE [11, 29]: 40
Pre-emerge Herbicidal Activity RICE [11, 30]: 90
Post-emerge Herbicidal Activity ECHCG ([12]; 63 g ai/ha): 0
Post-emerge Herbicidal Activity ECHCG ([12]; 250 g ai/ha): 20
Post-emerge Herbicidal Activity SETVI ([13]; 63 g ai/ha): 0
Post-emerge Herbicidal Activity SETVI ([13]; 250 g ai/ha): 30
Post-emerge Herbicidal Activity IPOHE ([14]; 63 g ai/ha): 100
Post-emerge Herbicidal Activity IPOHE ([14]; 250 g ai/ha): 100
Post-emerge Herbicidal Activity SORHA ([15]; 63 g ai/ha): 0
Post-emerge Herbicidal Activity SORHA ([15]; 250 g ai/ha): 10
Post-emerge Herbicidal Activity CHEAL ([16]; 63 g ai/ha): 80
Post-emerge Herbicidal Activity CHEAL ([16]; 250 g ai/ha): 100
Post-emerge Herbicidal Activity DIGSA ([17]; 63 g ai/ha): 0
Post-emerge Herbicidal Activity DIGSA ([17]; 250 g ai/ha): 10
Post-emerge Herbicidal Activity AMARE ([18]; 63 g ai/ha): 100
Post-emerge Herbicidal Activity AMARE ([18]; 250 g ai/ha): 100
Post-emerge Herbicidal Activity CASOB ([19]; 63 g ai/ha): 60
Post-emerge Herbicidal Activity CASOB ([19]; 250 g ai/ha): 100
Post-emerge Herbicidal Activity ABUTH ([20]; 63 g ai/ha): 100
Post-emerge Herbicidal Activity ABUTH ([20]; 250 g ai/ha): 100
Post-emerge Herbicidal Activity CORN ([21]; 63 g ai/ha): 10
Post-emerge Herbicidal Activity CORN ([21]; 250 g ai/ha): 30
Post-emerge Herbicidal Activity RICE ([22]; 63 g ai/ha): 10
Post-emerge Herbicidal Activity RICE ([22]; 250 g ai/ha): 60
